According to patent publication US8795964B2, “GRM3 mutations and use thereof for the diagnosis and treatment of melanoma” (The United States of America, as represented by the …, priority 2010, dated 2014):

What was measured:
Format in all cases: cell-based, human
MEK = test: Immunoblot of Erk1/2 phosphorylation in melanoma cell lines treated with AZD-6244; settings: 1 hour treatment
Method: (§1) FIGS. 5A-5E: Melanoma lines expressing GRM3 mutants show increased sensitivity to inhibition of MEK by AZD-6244. (FIG. 5A) Immunoblot analysis of representative melanoma cell lines harboring either WT or mutant GRM3. The cells were treated with the indicated concentration of AZD-6244 and analyzed for Erk1/2 expression and phosphorylation. Cells were treated for 1 hour with AZD-6244 or vehicle alone as control. Lysates were subjected to protein blot analysis with α-Eek, anti-P-Erk1/2 (α-P-Erk1/2) and anti-GAPDH as a loading control. (FIG. 5B) Representative dose-response curves showing efficacy of AZD-6244 against GRM3 mutant lines compared to WT GRM3 lines. Relative cell number after cells were treated for 72 hours with increasing concentrations (0.01-30 μM) of AZD-6244, as estimated by CellTiterGlo and plotted as percent survival, as compared to vehicle-treated control, versus log AZD-6244 concentration in nM (where 1 is 10 nM AZD-6244). […] (FIG. 5D) fluorescence activated cells sorting (FACS) analysis of WT (2T) and A190V mutant (17T) cells showing cell cycle distribution (propidium iodide (PI) staining, x axis) versus cell counts (y axis). […] (FIG. 5D) Quantification of FACS-sorted AZD-6244-treated cells. The percentage of apoptotic cells was determined based on the sub-G1 population for vehicle-treated cells or 1 AZD-6244 treated cells. […]

[1] = test system: 63T-Glu573Lys melanoma cells; test: Growth inhibition by AZD-6244 of mutant GRM3 cells (63T) transduced with empty vector or WT GRM3; settings: 63T cells, 72 hours treatment, CellTiterGlo
Method: FIGS. 12A-12C: Expression of WT GRM3 in a mutant GRM3 background desensitizes cells to AZD-6244 inhibition. (FIG. 12A) Cell lysates from 63T cells transduced with empty vector or WT GRM3 were analyzed by western blotting using anti-FLAG-HRP and anti-GAPDH as a loading control. (FIG. 12B) Melanoma cells harboring WT (13T) or mutant GRM3 (63T-Glu573Lys) transduced with empty vector or WT GRM3 were tested for growth inhibition by AZD-6244. Cells were plated and treated with AZD-6244 concentrations ranging from 2 nM to 30 μM for 72 hours prior to analysis using CellTiterGlo and GraphPad Prism5. EC50 dose-response curves were generated from GraphPad using four-parameter nonlinear regression. (FIG. 12C) EC50 values for inhibition of cell growth by 72 h treatment with AZD-6244 of the indicated melanoma cell lines.
To test AZD-6244 inhibition of cells that had been stimulated with DCG-IV to activate MEK1/2, melanoma cells were plated in 96-well plates at 2,000 cells per well in either RPMI-1640/0.5% FBS/2.5 μM DCG-IV or RPMI-1640/10% FBS and incubated for 24 hours prior to addition of inhibitor at concentrations from 2 nM to 30 μM. Once the inhibitor was added, cells were incubated for 72 hours at 37° C. Plates were then analyzed as described above. […]

[2] = test system: melanoma cells harboring WT or mutant GRM3; test: Flow cytometry (FACS) cell cycle analysis, sub-G1 population; settings: AZD-6244 2 μM for 72 hours, PI staining
Method: as §1, with “lines.” for “lines. Relative cell number after cells were treated for 72 hours with increasing concentrations (0.01-30 μM) of AZD-6244, as estimated by CellTiterGlo and plotted as percent survival, as compared to vehicle-treated control, versus log AZD-6244 concentration in nM (where 1 is 10 nM AZD-6244).”
Melanoma cells were seeded into T25 flasks at a density of 3×10^5 cells per flask in normal complete T2 medium and incubated at 37° C. for 24 hours prior to addition of AZD-6244 (cat #S1008) (Selleck Chemicals LLC-Houston, Tex.). […] Cellular DNA content was analyzed on Becton Dickinson FACSCalibur™ using CellQuest software. […]

PARP cleavage = test: Immunoblot of PARP cleavage after AZD-6244 treatment; settings: lysates from FACS analyzed cells
A375 pooled GRM3 clones = test: Migration assay (Boyden chamber), A375 pooled GRM3 clones with or without DCG-IV; settings: 2.5 μM DCG-IV, serum-free medium in top chamber
Method: (§2) FIGS. 3A-3C: GRM3 mutations increase cell migration in vitro and in vivo. (FIG. 3A) A375 pooled GRM3 clones in the absence of stimulus (i) migrate as well as those stimulated with the group II metabotropic agonist DCG-IV (ii). A375 clones were seeded in Boyden chambers in either the absence of stimulus (i) or in the presence of 2.5 μM DCG-IV (ii) and assessed for their ability to migrate 16 hours later. (FIG. 3B) Mel-STR pooled GRM3 clones were analyzed for migration as described in (FIG. 3A). Stained wells were analyzed using a Zeiss microscope 10× lens and counted with NIH ImageJ software. (FIG. 3C) non-obese diabetic (NOD)/severe combined immunodeficiency (SCID) mice were intravenously injected with A375 pooled GRM3 clones expressing WT, G561E, S610L, E767K, or E870K GRM3, or vector alone, and examined after nine weeks. (i) Graph indicates the number of mice that had lung macrometastases. (ii) Representative images of lungs from mice injected with vector, WT or mutant expressing A375 clones.
(§3) Mel-STR pooled clones were seeded into pre-conditioned migration wells (8.0 μm—BD Biocoat, BD Biosciences) at 30,000 cells per well in serum-free medium or serum-free medium plus 2.5 μM DCG-IV in the top chamber. […] Inserts were analyzed and the number of cells migrated per field view was quantitated using ImageJ (NIH software). […]

[3] = test system: Mel-STR pooled GRM3 clones; test: Migration assay (Boyden chamber), Mel-STR pooled GRM3 clones with or without DCG-IV; settings: 2.5 μM DCG-IV, serum-free medium in top chamber
Method: as §2, §3

SMILES | relative degree of MEK inhibition, mutant versus WT GRM3 cells (MEK) | inhibition of MEK as measured by phosphorylated ERK (p-ERK) levels (MEK; mutant as well as WT GRM3 melanoma cells) | resistance of cells overexpressing WT GRM3 in a mutant GRM3 background compared to control infected cells (cell proliferation) [1] | subG1 population (apoptotic cells) in mutant GRM3 cells compared to WT cells [2] | cleaved PARP in mutant GRM3 lines compared to WT cells (PARP cleavage) | migration of vector and WT GRM3 expressing cells upon stimulation (A375 pooled GRM3 clones) | migration of vector and WT GRM3 expressing cells upon stimulation [3]
Cn1cnc2c(F)c(Nc3ccc(Br)cc3Cl)c(C(=O)NOCCO)cc21 [AZD-6244] | greater for the mutant cells than for the WT cells | inhibited MEK | four-fold increased resistance | significant increase | increased levels of cleaved PARP | – | –
N[C@H](C(=O)O)C1[C@@H](C(=O)O)[C@@H]1C(=O)O (stereo partly shown) [DCG-IV] | – | – | – | – | – | migrated to a similar extent as mutant GRM3 expressing cells in the absence of stimuli | migrated to a similar extent as mutant GRM3 expressing cells in the absence of stimuli
